Experimental data reported in ChEMBL document CHEMBL1150575, “Microbial transformation of hypoestenone” (2001).
≈ marks a conversion by molar mass, not a printed value.

Tests used:
Assay type in all cases: functional
[1] = test system: Pseudomonas aeruginosa; assay: Antimicrobial activity against Pseudomonas aeruginosa by microtiter-plate assay
[2] = test system: Cryptococcus neoformans; assay: Antimicrobial activity against Cryptococcus neoformans by microtiter-plate assay
[3] = test system: Plasmodium falciparum; assay: Antiparasitic activity against Plasmodium falciparum W2

| MIC [1] [µg/mL] | MIC [2] [µg/mL] | MIC [3] [µg/mL] | SMILES |
| --- | --- | --- | --- |
| 45 (≈ 150 µM) | 20 (≈ 66.6 µM) | 2.8 (≈ 9.32 µM) | CC1=C2C[C@]3(C)C(=O)C[C@@H](C(C)C)[C@H]3C/C=C(/C)[C@@H]2CC1=O [HYPOESTENONE] |
|  | 50 (≈ 158 µM) |  | CC1=C2C[C@]3(C)C(=O)C[C@@H](C(C)C)[C@H]3C[C@H]3O[C@@]3(C)[C@@H]2CC1=O |
